Assays:
Type in all cases: in vivo, mice
[1] = test system: full thickness mouse wounds; test: Histology of full thickness mouse wounds (hematoxylin and eosin) after TNP-470 treatment
Procedure: Full thickness mouse wounds were made in adult mice, the majority of whom were six to eight weeks old and some of whom were fourteen to sixteen weeks old. Mice were pretreated for sixty days with TNP-470, then wounds were made, and healing monitored. Mice were treated with 30 mg/kg TNP-470 administered subcutaneously every other day. Histological micrographs of open mouse wounds harvested at 7, 12, and 17 days post excision were made. The biopsies were fixed, embedded, sectioned and stained with hematoxylin and eosin.

[2] = test system: basic fibroblast growth factor (bFGF); test: Endogenous basic fibroblast growth factor (bFGF) in the wound; settings: day 10 after wound; average; p≦0.05
Procedure: FIG. 1 is a graph of endogenous basic fibroblast growth factor (bFGF)(pg/cm2) over time (days after wounding) of mice treated with TNP-470 (solid circles) and controls that were not treated (open circles). Full thickness mouse wounds were made in adult mice, the majority of whom were six to eight weeks old and some of whom were fourteen to sixteen weeks old. Mice were pretreated for sixty days with TNP-470, then wounds were made, and healing monitored. Mice were treated with 30 mg/kg TNP-470 administered subcutaneously every other day. Mice were treated essentially the same as described in Example 1.

full thickness wounds = test: Wound closure / contraction of full thickness wounds
From the text: FIG. 2 is a graph of percent wounds open over time (days after wounding) for mice treated with TNP-470 for different dosage regimes: pretreatment days −60 to day 0; treated with TNP-470 days 5 to 18; treated with TNP-470 days 0 to 18; and treated with TNP-470 days 0, 2 and 4. Full thickness mouse wounds were made in adult mice, the majority of whom were six to eight weeks old and some of whom were fourteen to sixteen weeks old. Mice were pretreated for sixty days with TNP-470, then wounds were made, and healing monitored. Mice were treated with 30 mg/kg TNP-470 administered subcutaneously every other day. Mice were treated essentially the same as described in Example 1. Histological analysis of the wounds in the control and treated mice compared contraction of full thickness wounds in mice treated with systemic TNP-470 (AGM 1470), every other day after the wound is made, with untreated mice. Treatment with TNP-470 every other day after the wound is made (at a dose identical to that which results in maximal tumor inhibition) causes a 5-day delay in the complete contraction of the wound.

linear wounds = test: Breaking strength (tensile strength) of linear wounds; settings: for inhibition of breaking strength: systemic, FIG. 3, n=280 mice, statistically significant
Procedure: FIG. 3 is a graph of breaking strength (tensile strength) of linear wounds after systemic administration of TNP-470 days −20 to 0; days 0 to 4; days 0 to 12; days 5 to 12; and control, measured on days 4, 7 and 12 after wounding. Mice were treated essentially the same as described in Example 1. FIG. 3 (n=280 mice)graphs breaking strength of linear wounds after systemic administration of TNP-470. Breaking strength was inhibited 36% on post wound day 7 and 43% on post wound day 12. This was statistically significant. The wounds were inhibited if TNP-470 was given on post wound days 0, 2, 4 or post wound days 0, 2, 4, 6, 8, and 10.

[3] = 17 days post excision, vs untreated
[4] = given on post wound days 0, 2, 4, or post wound days 0, 2, 4, 6, 8, and 10

CO[C@@H]1[C@H](OC(=O)NC(=O)CCl)CC[C@]2(CO2)[C@H]1[C@@]1(C)O[C@@H]1CC=C(C)C [TNP-470, 0-chloroacetylcarbamoyl-Fumagillol]
blood vessels in healing wound granulation tissue ([1]; 7 days post excision, 30 mg/kg s.c. every other day, vs untreated): relatively lower density of blood vessels
blood vessels in granulation tissue under re-epithelialized surface ([1]; 12 days post excision, wound not completely closed, vs untreated): fewer vessels with smaller diameters
blood vessels in mature granulation tissue of healed wound [1, 3]: reduction in the number of vessels
density of mesenchymal cells in granulation tissue [1, 3]: continued higher density of mesenchymal cells
scar formation (histologic findings) ([1]; overall, 7, 12 and 17 days): severely retarded scar formation
reduction of bFGF concentration in wound [2]: 37%
wound healing slowed, time to full contraction (full thickness wounds; FIG. 2, n=440 mice, statistically significant): 5 days
wound healing (full thickness wounds; [4]): remained inhibited
delay in the complete contraction of the wound (full thickness wounds; systemic, every other day after the wound is made, dose of maximal tumor inhibition): 5 days
breaking strength of wounds (linear wounds; [4]): inhibited
inhibition of breaking strength (linear wounds; post wound day 7): 36%
inhibition of breaking strength (linear wounds; post wound day 12): 43%

From patent publication US6638949B1, “Prevention of adhesions and excessive scar formation using angiogenesis inhibitors” (priority 1997, dated 2003)
